Results: patent US20130131321A1, “LIGANDS FOR ANTIBODY AND Fc-FUSION PROTEIN PURIFICATION BY AFFINITY CHROMATOGRAPHY” (GRAFFINITY PHARMACEUTICALS GMBH, priority 2010, published 2013)
Where two headings read alike, the source gives them in different places.

Experiments:
host cell proteins (HCP) = assay: Microtiter plate chromatography of resins, host cell proteins (bound); format: binding, CHO
Description: Flowthrough from protein A chromatography (referred to as host cell proteins) was derived from the supernatant of antibody-producing CHO cell culture in serum-free medium.
(§1) Resins were assessed in packed mode by microtiter plate chromatography. For each column, approximately 30 μl of resin were transferred to a 384-well filter plate and sealed with appropriate top frits.
(§2) Columns were equilibrated with 6.7 column volumes (cv) of phosphate buffered saline (0.15 M NaCl, 20 mM sodium phosphate, pH 7.3; PBS) prior to injection. Either 3.3 cv of whole IgGs dissolved at 0.75 mg ml^−1, Fab or Fc fragments dissolved at 0.25 mg ml^−1 (all three in PBS) or host cell proteins (HCP) were injected onto columns. Antibody fragments of Bevacizumab (Fab and Fc) were prepared by cleavage of whole IgG with papain protease (3) according to the protocol of the manufacturer. […] Volumes transferred were spun through columns at 50 g for 1-2 min. During injection of samples, acceleration was reduced to 10 g and centrifugation time increased to 5-10 min. Effluent fractions were collected in 384-well plates and concentrations of protein analyzed by Bradford assay. Protein masses mi, mft and me (see below) were calculated as the product of fraction volume and measured protein concentration.
(§3) The fraction of ‘bound’ protein was calculated as the difference between the total mass of protein injected mi and the mass of protein detected in the flowthrough mft, divided by the total mass of protein injected.
(§4) the fraction of ‘bound’ protein and the ‘yield’ of protein were calculated for each resin based on data for whole IgG-antibodies. In the case of Bevacizumab fragments and host cell proteins, only the fraction of ‘bound’ protein is given. Selectivity of resins was calculated from data for Bevacizumab Whole IgG and host cell proteins. Due to limited experimental precision, selectivity was truncated beyond values of 10.

[1] = test system: human poly-IgG (h-poly-IgG); assay: Microtiter plate chromatography of resins, human poly-IgG (bound, yield); format: binding
Description: as §1, §2, §3
(§5) The ‘yield’ of protein was calculated as the mass of protein eluted me, divided by the mass of protein injected mi.
as §4

Tocilizumab = assay: Microtiter plate chromatography of resins, Tocilizumab (bound, yield); format: binding, humanized
Description: as §1, §2, §3, §5, §4

Palivizumab = assay: Microtiter plate chromatography of resins, Palivizumab (bound, yield); format: binding, humanized
Description: as §1, §2, §3, §5, §4

Bevacizumab [2] = molecular target: T1, Bevacizumab (Homo sapiens, UniProt P01857); assay: Microtiter plate chromatography of resins, Bevacizumab whole IgG (bound, yield, selectivity); format: binding, humanized
T1 construct: fused on or other part: humanised anti-VEGF-A VH domain N-terminal of the gamma-1 constant region (engineered, no UniProt entry)
Description: as §1, §2, §3, §5
(§6) The ‘selectivity’ of resins was calculated as the fraction of bound antibody BAb, divided by the fraction of bound host cell proteins BHCP.
as §4

Bevacizumab [3] = assay: as above; format: binding, humanized
Description: as §1, §2, §3, §5, §6, §4

[4] = fraction of whole IgG Bevacizumab bound to resin
[5] = mass of whole IgG Bevacizumab eluted / mass injected
[6] = fraction of injected host cell proteins bound to resin
[7] = fraction of injected protein bound to resin
[8] = fraction of injected whole IgG bound to resin
[9] = mass eluted / mass injected, whole IgG
[10] = fraction of bound Bevacizumab whole IgG / fraction of bound HCP, truncated beyond values of 10

Row | Compound | HCP Bound (%) (host cell proteins (HCP); host cell proteins) | h-poly-IgG Bound (%) [1] [%] | h-poly-IgG Yield (%) [1] [%] | Tocilizumab Bound (%) (Tocilizumab) | Tocilizumab Yield (%) (Tocilizumab) | Palivizumab Bound (%) (Palivizumab) | Palivizumab Yield (%) (Palivizumab) | Bevacizumab IgG Bound (%) (Bevacizumab [2]; [4]) | Bevacizumab IgG Yield (%) (Bevacizumab [2]; [5]) | Selectivity (Bevacizumab [3]) | also measured
1 | COc1ccc(NC(=O)c2nn(C)c3ccccc23)cc1C(=O)NCCOCCOCC(=O)NCCOCCOCC(=O)NCCCN [Ligand L61, 8-{8-[2-Methoxy-5-(1-methylindazol-3-ylcarboxamido)phenylcarboxamido]-3,6-dioxaoctanoylamido}-3,6-dioxaoctanoic acid (3-amino-1-propyl)amide] | 20 | 81 | 81 | 84 | 84 | 67 | 66 | 100 | 92 | 5.1 | –
2 | COc1ccc(NC(=O)c2nnc(-c3ccco3)o2)cc1C(=O)NCCOCCOCC(=O)NCCOCCOCC(=O)NCCCN [Ligand L67, 8-{8-{5-[5-(2-Furyl)-1,3,4-oxadiazol-2-ylcarboxamido]-2-methoxyphenylcarboxamido}-3,6-dioxaoctanoylamido}-3,6-dioxaoctanoic acid (3-amino-1-propyl)amide] | – | – | – | – | – | – | – | – | – | – | HCP Bound (%) (host cell proteins (HCP); [6]): 2%; h-poly-IgG Bound (%) [1, 7]: 89%; h-poly-IgG Yield (%) ([1]; mass eluted / mass injected): 87%; Tocilizumab Bound (%) (Tocilizumab; [7]): 91%; Tocilizumab Yield (%) (Tocilizumab; mass eluted / mass injected): 86%; Palivizumab Bound (%) (Palivizumab; [7]): 81%; Palivizumab Yield (%) (Palivizumab; mass eluted / mass injected): 80%; Bevacizumab IgG Bound (%) (Bevacizumab [2]; [8]): 100%; Bevacizumab IgG Yield (%) (Bevacizumab [2]; [9]): 100%; Selectivity (Bevacizumab [3]; bound Bevacizumab whole IgG / bound HCP, truncated beyond values of 10): 10.0
3 | CCOc1ccc(NC(=O)c2cc(-c3ccco3)n(C)n2)cc1C(=O)NCCCN [Ligand L29, 5-[5-(2-Furyl)-1-methylpyrazol-3-yl]carboxamido-2-ethoxybenzoic acid N-(3-aminopropyl)amide] | 43 | 95 | 70 | 100 | 96 | 100 | 88 | 100 | 84 | 2.4 | –
4 | NCCCNC(=O)c1cccc(C(=O)Nc2nnc(-c3ccco3)s2)c1 [Ligand L70, Isophthalic acid N-(3-aminopropyl)-N′-[5-(2-furyl)-1,3,4-thiadiazol-2-yl]amide] | – | – | – | – | – | – | – | – | – | 5.4 | HCP Bound (%) (host cell proteins (HCP); [6]): 19%; h-poly-IgG Bound (%) [1, 7]: 64%; h-poly-IgG Yield (%) ([1]; mass eluted / mass injected): 64%; Tocilizumab Bound (%) (Tocilizumab; [7]): 100%; Tocilizumab Yield (%) (Tocilizumab; mass eluted / mass injected): 100%; Palivizumab Bound (%) (Palivizumab; [7]): 55%; Palivizumab Yield (%) (Palivizumab; mass eluted / mass injected): 55%; Bevacizumab IgG Bound (%) (Bevacizumab [2]; [8]): 100%; Bevacizumab IgG Yield (%) (Bevacizumab [2]; [9]): 83%
5 | Cc1c(NC(=O)c2cc(-c3cccs3)n(C)n2)cccc1C(=O)NCCCN [Ligand L9, 2-Methyl-3-[1-methyl-5-(2-thienyl)pyrazol-3-yl]carboxamidobenzoic acid N-(3-aminopropyl)amide] | 58 | 65 | 53 | 71 | 64 | 41 | 33 | 100 | 91 | 1.7 | –
6 | COc1ccc(NC(=O)c2cn3ncccc3n2)cc1C(=O)NCCCN [Ligand L48, 5-(Imidazo[1,2-b]pyridazin-2-ylcarboxamido)-2-methoxybenzoic acid (3-amino-1-propyl)amide] | 8 | 84 | 84 | 87 | 87 | 58 | 54 | 100 | 97 | – | Selectivity (Bevacizumab [3]; [10]): 10.0
7 | NCCCNC(=O)c1cccc(C(=O)Nc2nc3ccccc3s2)c1 [Ligand L72, Isophthalic acid N-(3-aminopropyl)-N′-(benzothiazol-2-yl)amide] | – | – | – | – | – | – | – | – | – | 2.5 | HCP Bound (%) (host cell proteins (HCP); [6]): 40%; h-poly-IgG Bound (%) [1, 7]: 90%; h-poly-IgG Yield (%) ([1]; mass eluted / mass injected): 90%; Tocilizumab Bound (%) (Tocilizumab; [7]): 93%; Tocilizumab Yield (%) (Tocilizumab; mass eluted / mass injected): 93%; Palivizumab Bound (%) (Palivizumab; [7]): 91%; Palivizumab Yield (%) (Palivizumab; mass eluted / mass injected): 91%; Bevacizumab IgG Bound (%) (Bevacizumab [2]; [8]): 100%; Bevacizumab IgG Yield (%) (Bevacizumab [2]; [9]): 83%
8 | COc1ccc(NC(=O)c2cc3ccccn3n2)cc1C(=O)NCCCN [Ligand L46, 2-Methoxy-5-(pyrazolo[1,5-a]pyridin-2-ylcarboxamido)benzoic acid (3-amino-1-propyl)amide] | 20 | 93 | 93 | 100 | 97 | 85 | 85 | 100 | 82 | 5.0 | –
9 | COc1ccc(NC(=O)c2nccc3ccccc23)cc1C(=O)NCCCN [Ligand L35, 5-(1-Isoquinolinyl)carboxamido-2-methoxybenzoic acid N-(3-aminopropyl)amide] | 51 | 95 | 76 | 100 | 92 | 100 | 95 | 100 | 96 | 2.0 | –
10 | COc1ccc(NC(=O)c2c[nH]c3ccccc23)cc1C(=O)NCCCN [Ligand L26, 5-(Indol-3-yl)carboxamido-2-methoxybenzoic acid N-(3-aminopropyl)amide] | 42 | 75 | 74 | 77 | 84 | 58 | 59 | 100 | 94 | 2.4 | –
11 | COc1ccc(NC(=O)c2nn(C)c3ccccc23)cc1C(=O)NCCOCCOCC(=O)NCCCN [Ligand L60, 8-[2-Methoxy-5-(1-methylindazol-3-ylcarboxamido)phenylcarboxamido]-3,6-dioxaoctanoic acid (3-amino-1-propyl)amide] | 30 | 95 | 94 | 93 | 93 | – | – | 100 | 82 | 3.3 | –
12 | COc1ccc(NC(=O)c2cn3ccsc3n2)cc1C(=O)NCCCNC(=O)CC[C@H](N)C(=O)NCCCNC(=O)c1cc(NC(=O)c2cn3ccsc3n2)ccc1OC [Ligand L64, (S)-1-Aminopropane-1,3-dicarboxylic acid bis{3-[5-(imidazo[2,1-b]thiazol-6-ylcarboxamido)-2-methoxyphenylcarboxamido]propyl}amide] | 36 | 100 | 97 | 99 | 99 | – | – | 100 | 93 | – | Selectivity (Bevacizumab [3]; [10]): 2.8
13 | COc1ccc(NC(=O)c2cn3ccsc3n2)cc1C(=O)NCCCC[C@H](NC(=O)c1cc(NC(=O)c2cn3ccsc3n2)ccc1OC)C(=O)NCCCN [Ligand L49, (S)-2,6-Bis[5-(Imidazo[2,1-b]thiazol-6-ylcarboxamido)-2-methoxyphenylcarboxamido]hexanoic acid (3-amino-1-propyl)amide] | 17 | 88 | 88 | 99 | 97 | – | – | 100 | 88 | – | Selectivity (Bevacizumab [3]; [10]): 6.1
14 | COc1ccc(NC(=O)c2cn3ccsc3n2)cc1C(=O)NCCOCCOCC(=O)NCCCC[C@H](NC(=O)COCCOCCNC(=O)c1cc(NC(=O)c2cn3ccsc3n2)ccc1OC)C(=O)NCCCN [Ligand L50, (S)-2,6-Bis{8-[5-(Imidazo[2,1-b]thiazol-6-ylcarboxamido)-2-methoxyphenylcarboxamido]-3,6-dioxaoctanoylamido}hexanoic acid (3-amino-1-propyl)amide] | 15 | 91 | 91 | 100 | 100 | – | – | 100 | 92 | – | Selectivity (Bevacizumab [3]; [10]): 6.9
